In ChEMBL document CHEMBL1135659, “Sulfamide-based inhibitors for carboxypeptidase A. Novel type transition state analogue inhibitors for zinc proteases” (J Med Chem, 2002):

The compounds below were run against T1, Carboxypeptidase A1 (Bos taurus, UniProt P00730) (assay: Inhibitory activity against Carboxypeptidase A).
T1 sequence (P00730 whole entry): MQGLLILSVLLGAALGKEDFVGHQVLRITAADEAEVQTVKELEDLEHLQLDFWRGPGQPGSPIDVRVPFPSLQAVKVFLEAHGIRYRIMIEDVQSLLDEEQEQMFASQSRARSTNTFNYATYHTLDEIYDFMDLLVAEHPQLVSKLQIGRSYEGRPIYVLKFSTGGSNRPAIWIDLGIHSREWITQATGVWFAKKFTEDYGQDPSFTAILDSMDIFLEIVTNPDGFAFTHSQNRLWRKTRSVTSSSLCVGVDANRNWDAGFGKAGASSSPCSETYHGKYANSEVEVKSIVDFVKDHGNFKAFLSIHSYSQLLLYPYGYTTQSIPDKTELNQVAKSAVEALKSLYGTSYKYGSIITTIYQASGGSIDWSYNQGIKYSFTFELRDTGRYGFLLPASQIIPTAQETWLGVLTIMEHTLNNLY

| Ki | Compound |
| --- | --- |
| 2900 µM | NS(=O)(=O)NCC(Cc1ccccc1)C(=O)O (stereo not drawn) |
| 1400 µM | NS(=O)(=O)NC[C@@H](Cc1ccccc1)C(=O)O |
| 180 µM | O=C(O)[C@H](Cc1ccccc1)NS(=O)(=O)NCCc1ccccc1 |
| 610 µM | CC(C)NS(=O)(=O)N[C@@H](Cc1ccccc1)C(=O)O |
| 470 µM | NS(=O)(=O)N[C@H](Cc1ccccc1)C(=O)O |
| 3500 µM | CN([C@@H](Cc1ccccc1)C(=O)O)S(N)(=O)=O |
| 35 µM | O=C(O)[C@H](Cc1ccccc1)NS(=O)(=O)NCc1ccccc1 |
| 180 µM | CNS(=O)(=O)N[C@@H](Cc1ccccc1)C(=O)O |
